The source of these data is patent US20080242674A1, “Medicine For Prevention or Treatment of Frequent Urination or Urinary Incontinence” (priority 2004, published 2008).

One assay concerns anesthetized rats. The assay is described as follows: Intra-bladder pressure measurement in anesthetized rat. Conditions: male rats, urethane anesthesia, after midodorin hydrochloride 3 mg/kg iv, isoproterenol 10 mg/kg iv = 100%. Format: in vivo. An excerpt: Male rats were anesthetized with urethane. To each rat, tracheal and femoral vein cannulas were inserted. After midline abdominal incision, the ureter on either side was ligated and cut at the proximal end of the ligated portion. After the urethra was ligated, a cannula was inserted into the urinary bladder through the top of the bladder dome. Through a three-way connecter, warmed saline was instilled to adjust the intra-bladder pressure to about 10 cmH2O. The other end of the bladder cannula was connected to a pressure transducer, and intra-bladder pressure was measured. Three mg/kg of midodorin hydrochloride was injected through the femoral vein cannula. Ten minutes after the midodorin hydrochloride injection, tamsulosin hydrochloride (5 mg/kg, iv) or compound 1 (10 mg/kg, iv) was intravenously injected, and the decreasing effect by single administration of each drug was evaluated. Next, 15 minutes after administration, compound 1 (10 mg/kg, iv) was intravenously injected to the animal treated with tamsulosin hydrochloride (5 mg/kg, iv) to evaluate the combinational effect. At the last, 10 mg/kg of isoproterenol was intravenously injected, and the maximum decreasing effect was set as 100% .

Assay [1] relates to acetic acid-stimulated rats. The assay is described as follows: Micturition interval measurement in acetic acid-stimulated rat. The assay is classed as in vivo. The settings on record: female rats, urethane anesthesia, 0.25% acetic acid instilled into the bladder, 30 minutes after administration. An excerpt: Female rats were anesthetized with urethane. After the midline abdominal was incised, and the ureter on either side was ligated and cut, the renal end was kept open. A cannula was inserted into the urinary bladder through the top of the bladder dome and connected to a three-way connecter to establish routes for the intra-bladder pressure measurement and instillation into the bladder. The other end of the bladder cannula was connected to a pressure transducer, and intra-bladder pressure was measured. Saline was continuously instilled into the bladder (3.6 mL/hr) . […] After stable micturition intervals were obtained, silodosin (0.03 mg/kg), (−)-2-[4-[2-[[(1S, 2R)-2-hydroxy-2-(4-hydroxyphenyl)-1-methylethyl]amino]ethyl]-2,5-dimethylphenoxy] acetic acid (hereinafter referred to as “compound 2”) (1 mg/kg) or both of silodosin (0.03 mg/kg) and compound 2 (1 mg/kg) were injected through a femoral venous cannula respectively, and time from when a micturition occurred till when the next micturition was induced (micturition interval) was measured. Mean micturition intervals for 2 times before each drug administration and for all micturition which occurred in 30 minutes after the drug administration were calculated, and the change to the mean value before administration was evaluated. […]

The structures appear in SMILES notation. Counter-ions that a name gives are not always drawn.

As for `CCOC(=O)COc1cc(C)c(CCN[C@@H](C)[C@H](O)c2ccc(O)cc2)cc1C` [compound 1, ethyl (−)-2-[4-[2-[[(1S, 2R) -2-hydroxy-2-(4-hydroxyphenyl)1-methylethyl]amino]ethyl]-2,5-dimethyl-phenoxy]acetate], the “effect decreasing the intra-bladder pressure (percentage of the maximum decreasing effect by isoproterenol)” value in the assay with anesthetized rats (compound 1 10 mg/kg iv alone) was determined as 37%. On to `Cc1cc(OCC(=O)O)c(C)cc1CCN[C@@H](C)[C@H](O)c1ccc(O)cc1` [compound 2, (−)-2-[4-[2-[[(1S, 2R)-2-hydroxy-2-(4-hydroxyphenyl)-1-methylethyl]amino]ethyl]-2,5-dimethylphenoxy] acetic acid], for which, in assay [1] (compound 2 1 mg/kg iv alone), the “change in the micturition interval (percentage of the mean value before administration)” value was found to be 116.3%. Regarding `C[C@H](Cc1cc2c(c(C(N)=O)c1)N(CCCO)CC2)NCCOc1ccccc1OCC(F)(F)F` [silodosin], the “change in the micturition interval (percentage of the mean value before administration)” value in assay [1] (silodosin 0.03 mg/kg iv alone) stood at 115.2%. For `CCOc1ccccc1OCCN[C@H](C)Cc1ccc(OC)c(S(N)(=O)=O)c1` [tamsulosin hydrochloride], the “effect decreasing the intra-bladder pressure (percentage of the maximum decreasing effect by isoproterenol)” value in the assay on anesthetized rats (tamsulosin hydrochloride 5 mg/kg iv alone) is given as 26%.
